Values of other authors in patent US20220249978A1, “NOVEL SOLVENT FOR EXTRACTING, SOLUBILISING AND/OR FORMULATING VOLATILE AND NON-VOLATILE COMPOUNDS OF INTEREST IN ANIMAL NUTRITION AND HEALTH, PREPARATION METHOD AND USES THEREOF” (ID4TECH, priority 2019, published 2022).

What was measured:
Bacillus anthracis = settings: blocks its growth without killing the cells
[1] = system: pro-inflammatory cytokines (IL-8 and TNF-α)
[2] = system: Gram+ but also Gram− bacteria such as Staphylococcus, Streptococcus, Gardnerella, Haemophilus but also Listeria monocytogenes
Candida strains = settings: in vitro and in vivo

In the case of CCCCCCCCCCCC(=O)OCC(O)CO (stereo not shown) [glycerol monolaurate], the “action against Bacillus anthracis” value (Bacillus anthracis) is listed as “bacteriostatic agent”, the “quantity of pro-inflammatory cytokines (IL-8 and TNF-α)” value [1] is listed as “significant decrease” and the “growth of Gram+ and Gram− bacteria” value [2] is listed as “acts against the growth”. For the same molecule, the “growth of Candida strains” value (Candida strains) was “inhibits the growth”.
